Reference: US20170211073A1, “ANTISENSE ANTINEOPLASTIC AGENT” (priority 2014, published 2017)

Key:
Lewis lung cancer = Lewis lung cancer subcutaneous tumor model; format: in vivo; conditions: 10 mg/kg BW caudal vein once a week for three weeks; days 14 and 21; vs control antisense group
Protocol: Subcutaneous tumor models of lung cancer, Lewis lung cancer, were created. […] The tumor diameters were measured over time.

[1] = General blood and biochemical examinations, mice with Suit2-GR sc tumor; conditions: SUIT2-GR and HCT116 models; 10 mg/kg BW once a week over three weeks
Protocol: Subcutaneous tumor models were created by subcutaneously transplanting gemcitabine-resistant pancreatic cancer SUIT2-GR cells and large intestine cancer HCT116 cells to the thighs of nude mice. After tumors having a volume of 50 mm^3 were formed, 10 mg/kg BW of #10AmNA YB-1 antisense was administered from the caudal veins once a week over three weeks. The tumor diameters were measured over time.

[2] = test system: large intestine cancer HCT116 cells; experiment: Repetitive administration into blood, HCT116 subcutaneous tumor growth; format: in vivo, nude mice; conditions: 10 mg/kg BW caudal vein once a week over three weeks, days 14 and 21
Protocol: The tumor diameters were measured over time.

YB-1 = YB-1 knockdown siRNA vs AmNA-AON, mRNA level (real-time RT-PCR); format: cell-based; conditions: AsPC-1, MIA PaCa-2, Suit-2; 20 nM; 48 hours
Protocol: YB-1-siRNA or YB-1 #10AmNA was introduced (final concentration, 20 nM) into cells of the pancreatic cancer cell strains (AsPC-1, MIA PaCa-2, and Suit-2). After 48 hours, RNAs and proteins were extracted, and the YB-1 expression was evaluated by real-time RT-PCR and Western blotting at the mRNA level (A) and protein level (B), respectively. Both the knockdown efficiencies obtained with siRNA and #10 AmNA-AON were high at the mRNA level, and any clear difference was not observed between them. […] The graphs show mean±SD (n=3, *P<0.05).

[3] = test system: gemcitabine-resistant human pancreatic cancer SUIT2 cells; experiment: Antitumor effect of YB-1 ASO AmNA into blood, gemcitabine-resistant SUIT2 subcutaneous tumor; format: in vivo, nude mice
Protocol: Antitumor effect of administration into blood of YB-1 ASO of AmNA type, of which high safety was confirmed in Example 9 compared with ASO constituted with the conventional BNA, was examined. The human large intestine cancer cells HCT116 were subcutaneously transplanted to the thighs of nude mice. After subcutaneous tumors having a diameter of 6 to 7 mm (average tumor volume, 78 vs. 72 mm^3) were formed, 200 μg/200 μL of YB-1 ASO AmNA was administered (once every two weeks, total 2 times) into the blood from the caudal veins. The diameters of the tumors were measured over time, and tumor volumes calculated in accordance with a calculation formula, (Major axis)×(Minor axis)/2, were compared with those obtained with the control antisense group. The subcutaneous tumors were collected after one week from the second administration (day 28), and weights thereof were compared. In the YB-1 ASO AmNA group, both the tumor diameter and tumor weight were suppressed to about ⅕ of those observed with the control antisense group (FIG. 10, *P<0.05).
A human pancreatic cancer SUIT2 cell strain was prepared by culturing pancreatic cancer cells resistant to the anticancer agent, gemcitabine, for a long period of time in a medium containing gemcitabine at a low concentration (IC50 value, 100 nM for the resistant strain vs. 5 nM for the parent strain). […]

[4] = test system: gastric cancer cell strain AS44-luc; experiment: AS44-luc peritoneum inoculation model, survival; format: in vivo; conditions: 10 mg/kg BW intraperitoneally once a week for two weeks, vs control group
Protocol: Peritoneum inoculation models of gastric cancer cell strain AS44-luc stably expressing luciferase were prepared. Then, after 1 week from the transplantation of the cancer cells, 10 mg/kg BW of #10 AmNA YB-1 antisense was intraperitoneally administered once a week for two weeks, and the tumor volume was evaluated over time in terms of the luciferase activity.

In the case of “TCTcctgcaccCTGg (TCTCCTGCACCCTGG; chemistry not fully specified) [#10AmNA]”, the “increase of the tumor” value (Lewis lung cancer) is reported as “significantly suppressed”, the “safety with the every week administration protocol” value [1] is reported as “any problem was not observed” and the subcutaneous tumor-suppressing effect [2] is reported as “significant subcutaneous tumor-suppressing effect”. For the same substance, the “knockdown efficiency at the mRNA level” value (YB-1) was “high”, the “tumor weight as fraction of control antisense group” value [3] was “about ⅓” and the “tumor diameter as fraction of control antisense group” value ([3]; 200 μg/200 μL into blood, once every two weeks, total 2 times) was “about ⅓”. For the same substance, the “survival rate (Kaplan-Meier)” value [4] was “significantly increased”.
